Patent publication US6368788B1 (priority 1987, dated 2002)
Where two headings read alike, the source gives them in different places. Marks after values point to notes of the source that are not given here.

What was measured:
[1] = tested on: Mycobacterium tuberculosis; parameters: species or system human; conditions: in vivo
Pseudomonas aeruginosa = assay: Survival after acute peritonitis with LD100 dose of Pseudomonas aeruginosa; format: in vivo, mice; conditions: 1 MED
Staphylococci = assay: Antibiotic sensitivity (doubling-dilution, MIC-2000) of patient isolates before and after Stage 1; format: cell-based
Procedure: Antibiotics were administered according to established dosages and routes: i.e., penicillin, Ampicillin, oxacillin, tetracycline, erythromycin, garamycin; administered by intramuscular route. Antibiotics were chosen according to the antibiotic sensitivity of the Staphylococci isolated from the respective patients. (Antibiotic sensitivity was determined by testing staphylococcal isolates for their sensitivity in an antibiotic sensitivity doubling-dilution assay with the aid of the semi-automatic MIC-2000 system, Dynatech, USA).
Staphylococci were isolated from patients before and after treatment in Stage 1 with L-Glu-L-Trp in order to determine whether a favorable reversal of T-lymphocyte immunodeficiency might lead to a change in the antibiotic sensitivity. The isolated bacterial colonies following Stage I were typed as follows: namely, in 16 patients S. aureus, in 34, S. epidermidis, in 2 saprophytic Staphylococci. In all cases the same types of Staphylococci were isolated following treatment with L-Glu-L-Trp, but in 4 patients the predominant Staphylococci in the isolates changed from S. aureus to S. epidermidis (n=2), and saprophytic Staphylococci (n=2).
Antibiotic sensitivity of Staphylococci were determined by doubling-dilution methods with the aid of the semiautomatic MIC-2000 system (Dynatech, USA).

Rauscher MuLV = assay: Anti-viral response to Rauscher MuLV; format: in vivo, mice
Source text: Innate mechanisms of anti-viral immunity are important to survival of the host. The Rauscher murine leukemia virus (MuLV) is an example of a highly virulent animal retrovirus infection, first isolated and characterized by Dr. Rauscher from BALB/c mouse tissues in 1962. […] The virus employed in present GLP/blinded study was a murine leukemia complex known to induce progressive erythroleukemia in mice (i.e., Rauscher MuLV and replication-defective Rauscher spleen focus-forming virus). Disease manifested within about 6 days with death by about 50 days. Measurements of splenomegaly, blood reverse transcriptase, virus plaque assays (i.e., XC-plaque assay for viremia using SC-1 host cells) and serum anti-viral antibody titers were used to assess infection. Spleens achieved about 2.0 grams in weight within 21 days of infection, as compared with a normal spleen weights in an uninfected animals of about 0.1 gram.
Mice were inoculated with Rauscher MuLV complex (0.1 ml/7.8×10^4 PFU/mL) on day 0 and sacrificed on day 21. Test groups were comprised of 10 mice and control groups 6 mice. Control articles included saline and AZT (in drinking water at about 1.25 mg/mouse/day≈63 mg/kg/day/mouse). […] A non-infected group of mice was also sacrificed on day 21 to provide normal control values.
In EXAMPLE 38, SC-1 cells were originally derived from murine embryos, and XC cells (a rat tumor cell line induced by Rous Sarcoma Virus) were obtained from the ATCC in Rockville, Md.

YAC-1 target cells = assay: NK cytotoxic activity of splenocytes on YAC-1 target cells; format: in vivo, C3H/HeJ mice
C. albicans = format: in vivo, mice
Staphylococcus aureus [2] = assay: Survival after acute peritonitis with LD100 dose of antibiotic-resistant Staphylococcus aureus, prophylactic treatment; conditions: for Percentage Survivors: 1 MED
Staphylococcus aureus [3] = assay: Survival after Staphylococcus aureus peritonitis, therapeutic treatment 1 hour after challenge; format: in vivo, mice; conditions: 1 MED
Procedure: EXAMPLES 32-34, above, test substance (i.e., L-Glu-L-Trp alone or in combination with antibiotic, or antibiotic alone) was injected sc, ip, po one hour after the bacterial challenge.

E. coli = assay: Survival after acute peritonitis with LD100 dose of E. coli; format: in vivo, mice; conditions: 1 MED
hepatitis B = assay: Children with chronic persistent hepatitis B; format: in vivo, human
Procedure: In accord with a USSR Ministry of Health decision 125 children suffering with chronic persistent hepatitis B were entered into this trial over a two month period. Group 1 consisted of 35 children who received decaris immunomodulatory therapy; Group 2, 38 children who received thymalin treatments; Group 3, […] who received L-Glu-L-Trp; and, Group 4, 32 children who received only conventional symptom specific therapy.
L-Glu-L-Trp was administered at a dose of 2 μg/kg of body mass, im, daily for […], and a repeat (identical) course of treatment was administered 10 days after termination of the first course.

[4] = After Stage 1 Treatment (L-Glu-L-Trp only)
[5] = 20 mg/kg, days 0, 1, 2, 3, and 4 (Group 8)
[6] = 20 mg/kg, days −2, −1, 0, +1, and +2 (Group 10)
[7] = 25 mg/kg, days 0, 1, 2, 3, and 4
[8] = 50 mg/kg, days 0, 1, 2, 3, and 4
[9] = 100 mg/kg, days 0, 1, 2, 3, and 4
[10] = 200 mg/kg, days 0, 1, 2, 3, and 4

c1ccc([C@H]2CN3CCSC3=N2)cc1 [decaris]
Considerable Improvement, % of patients [1]: 5% | Considerable Improvement, No. of patients [1]: 1 | Improvement, % of patients [1]: 82% | Improvement, No. of patients [1]: 18 | No Change, % of patients [1]: 13% | No Change, No. of patients [1]: 3 | Patients with closure of degeneration foci and cavities in the lungs [1]: 10 | Patients with closure of foci and cavities [1]: 45% | Patients with “considerable improvement” [1]: 5% | Patients with “improvement” [1]: 18 | Response rate [1]: 86%

Gentamycin [reference compound]
Percentage Survivors (Pseudomonas aeruginosa; 24 hours after injection): 27.8* % | Percentage Survivors (Pseudomonas aeruginosa; 48 hours after injection): 27.8* % | Percentage Survivors (Pseudomonas aeruginosa; 96 hours after injection): 27.8* % | Mean minimum inhibitory concentration (MIC) (Staphylococci; [4]): 1.32 ± 0.49 µg/mL | Mean minimum inhibitory concentration (MIC) (Staphylococci; Before Treatment): 5.47 ± 0.92 µg/mL

[H]/N=C(/N)N[C@H]1[C@H](O)[C@@H](O)[C@H](O[C@@H]2O[C@@H](C)[C@](O)(C=O)[C@H]2O[C@@H]2O[C@@H](CO)[C@H](O)[C@@H](O)[C@@H]2NC)[C@@H](N/C(N)=N\[H])[C@@H]1O [Streptomycin]
Mean minimum inhibitory concentration (MIC) (Staphylococci; [4]): 3.39 ± 0.66 µg/mL | Mean minimum inhibitory concentration (MIC) (Staphylococci; Before Treatment): 6.71 ± 0.59 µg/mL

Cc1onc(-c2ccccc2)c1C(=O)N[C@@H]1C(=O)N2[C@@H]1SC(C)(C)[C@@H]2C(=O)O [Oxacillin]
Mean minimum inhibitory concentration (MIC) (Staphylococci; [4]): 1.56 ± 0.45 µg/mL | Mean minimum inhibitory concentration (MIC) (Staphylococci; Before Treatment): 5.11 ± 0.63 µg/mL

CN[C@@H]1[C@@H](O)[C@@H](O[C@@H]2[C@@H](O)[C@H](O[C@H]3OC(CN)=CC[C@H]3N)[C@@H](N)C[C@H]2N)OC[C@]1(C)O [Cisomycin]
Mean minimum inhibitory concentration (MIC) (Staphylococci; [4]): 1.59 ± 0.58 µg/mL | Mean minimum inhibitory concentration (MIC) (Staphylococci; Before Treatment): 3.46 ± 0.90 µg/mL

Cc1nnc(SCC2=C(C(=O)O)N3C(=O)[C@@H](NC(=O)Cn4cnnn4)[C@H]3SC2)s1 [Kefzol]
Mean minimum inhibitory concentration (MIC) (Staphylococci; [4]): 1.86 ± 0.93 µg/mL | Mean minimum inhibitory concentration (MIC) (Staphylococci; Before Treatment): 4.61 ± 0.87 µg/mL

O=C(Cc1cccs1)N[C@@H]1C(=O)N2C(C(=O)[O-])=C(C[n+]3ccccc3)CS[C@H]12 [Ceporin]
Mean minimum inhibitory concentration (MIC) (Staphylococci; [4]): 1.82 ± 0.67 µg/mL | Mean minimum inhibitory concentration (MIC) (Staphylococci; Before Treatment): 5.69 ± 0.86 µg/mL

CC(=O)OCC1=C(C(=O)O)N2C(=O)[C@@H](NC(=O)Cc3cccs3)[C@H]2SC1 [Keflin]
Mean minimum inhibitory concentration (MIC) (Staphylococci; [4]): 1.86 ± 0.69 µg/mL | Mean minimum inhibitory concentration (MIC) (Staphylococci; Before Treatment): 4.49 ± 0.93 µg/mL

Poly(IC)
Reduction Splenomegaly (%) (Rauscher MuLV; [5]): 27% | Spleen Weight (mean ± SD) (Rauscher MuLV; [5]): 0.37 ± 0.22 | Reduction Splenomegaly (%) (Rauscher MuLV; [6]): −78% | Spleen Weight (mean ± SD) (Rauscher MuLV; [6]): 0.72 ± 0.29

NC[C@H]1O[C@H](O[C@H]2[C@H](O)[C@@H](O[C@H]3O[C@H](CO)[C@@H](O)[C@H](N)[C@H]3O)[C@H](N)C[C@@H]2N)[C@H](O)[C@@H](O)[C@@H]1O [Kanamycin]
Mean minimum inhibitory concentration (MIC) (Staphylococci; [4]): 2.09 ± 0.54 µg/mL | Mean minimum inhibitory concentration (MIC) (Staphylococci; Before Treatment): 6.32 ± 0.58 µg/mL

O=C(N[C@H](CO)[C@H](O)c1ccc([N+](=O)[O-])cc1)C(Cl)Cl [Levomycetin]
Mean minimum inhibitory concentration (MIC) (Staphylococci; [4]): 4.58 ± 0.67 µg/mL | Mean minimum inhibitory concentration (MIC) (Staphylococci; Before Treatment): 9.17 ± 0.36 µg/mL

O=P1(N(CCCl)CCCl)NCCCO1 (centres unmarked) [cyclophosphamide, Cyclophosphamide, reference compound]
% Cytotoxicity (mean +/− S.D.) (YAC-1 target cells; dose 50 (μg/kg), reference treatment): 6.4 ± 0.7% | Cytotoxicity Change (%) (YAC-1 target cells; dose 50, vs saline): −25 ↓ % | NK activity (YAC-1 target cells; reference treatment): decreased NK activity

Cc1cn([C@H]2C[C@H](N=[N+]=[N-])[C@@H](CO)O2)c(=O)[nH]c1=O [AZT, reference compound]
Reduction Splenomegaly (%) (Rauscher MuLV; [7]): 46% | Spleen Weight (mean ± SD) (Rauscher MuLV; [7]): 0.31 ± 0.05 | Reduction Splenomegaly (%) (Rauscher MuLV; [8]): 33% | Spleen Weight (mean ± SD) (Rauscher MuLV; [8]): 0.35 ± 0.17 | Reduction Splenomegaly (%) (Rauscher MuLV; [9]): 52% | Spleen Weight (mean ± SD) (Rauscher MuLV; [9]): 0.29 ± 0.02 | Reduction Splenomegaly (%) (Rauscher MuLV; [10]): 46% | Spleen Weight (mean ± SD) (Rauscher MuLV; [10]): 0.31 ± 0.09

CC1(C)S[C@@H]2[C@H](NC(=O)Cc3ccccc3)C(=O)N2[C@H]1C(=O)O [Penicillin]
Mean minimum inhibitory concentration (MIC) (Staphylococci; [4]): 2.52 ± 0.70 µg/mL | Mean minimum inhibitory concentration (MIC) (Staphylococci; Before Treatment): 9.45 ± 0.28 µg/mL

Cc1nnc(SCC2=C(C(=O)O)N3C(=O)[C@@H](NC(=O)Cn4cnnn4)[C@H]3SC2)s1 [Cephamezine]
Mean minimum inhibitory concentration (MIC) (Staphylococci; [4]): 1.33 ± 0.53 µg/mL | Mean minimum inhibitory concentration (MIC) (Staphylococci; Before Treatment): 3.52 ± 0.94 µg/mL

C[C@@H]1[C@H](O)[C@@H](C)/C=C/C=C/C=C/C=C/C=C/C=C/C=C/[C@H](O[C@@H]2O[C@H](C)[C@@H](O)[C@H](N)[C@@H]2O)C[C@@H]2O[C@](O)(C[C@@H](O)C[C@@H](O)[C@H](O)CC[C@@H](O)C[C@@H](O)CC(=O)O[C@H]1C)C[C@H](O)[C@H]2C(=O)O [Amphotericin, reference compound]
Germ Tube (%) (C. albicans; 0.063 mg/kg): 20* % | Germ Tube (%) (C. albicans; 0.125 mg/kg): 17* % | Germ Tube (%) (C. albicans; 0.25 mg/kg): 14* % | Germ Tube (%) (C. albicans; 0.5 mg/kg): 3* % | Germ Tube (%) (C. albicans; 1 mg/kg): 1* %

CC1(C)S[C@@H]2[C@H](NC(=O)[C@H](N)c3ccccc3)C(=O)N2[C@H]1C(=O)O [Ampicillin, reference compound]
Percentage Survivors (Staphylococcus aureus [2]; 24 hours): 75* % | Percentage Survivors (Staphylococcus aureus [2]; 48 hours): 44.4* % | Percentage Survivors (Staphylococcus aureus [2]; 72 hours): 30.6* % | Mean effective dose (MED) for 100% survival after one LD50 dose of methicillin-sensitive staphylococci (Staphylococcus aureus [2]; ip one hour after bacterial challenge): 100 mg/kg | Mean minimum inhibitory concentration (MIC) (Staphylococci; [4]): 2.64 ± 0.60 µg/mL | Mean minimum inhibitory concentration (MIC) (Staphylococci; Before Treatment): 8.10 ± 0.49 µg/mL | Percentage Survivors (Staphylococcus aureus [3]; 24 hours): 75.0* % | Percentage Survivors (Staphylococcus aureus [3]; 48 hours): 44.4* % | Percentage Survivors (Staphylococcus aureus [3]; 72 hours): 30.6* % | Percentage Survivors (E. coli; 24 hours after injection): 33.3* % | Percentage Survivors (E. coli; 48 hours after injection): 22.2* % | Percentage Survivors (E. coli; 72 hours after injection): 22.2* %

c1ccc([C@H]2CN3CCSC3=N2)cc1 [Descaris]
Percent of Subjects Disease Free at 6 Months After Treatment (hepatitis B; Group 1, Pre-Treatment ALCT Activity None): 100% | Percent of Subjects Disease Free at 6 Months After Treatment (hepatitis B; Group 2, Pre-Treatment ALCT Activity Moderate): 67% | Percent of Subjects Disease Free at 6 Months After Treatment (hepatitis B; Group 3, Pre-Treatment ALCT Activity High): 67%
